Results reported in US11518750B2, “3-methylideneoxan-4-one compounds and substituted derivatives thereof as inhibitors of telomerase” (NORTHWESTERN UNIVERSITY, priority 2019, dated 2022).
Like-named read-outs stand apart in the source and are kept apart here.

Molecular target: T1, telomerase (MCF-7 cell lysates) (Homo sapiens, UniProt O14746)
T1 construct: endogenous in cells; host or cells: MCF-7
Experiment: TRAP assay in cell lysates (PCR-based telomerase activity assay)
Format: biochemical
Details: TRAP assay, read-out: IC50
Text: In developing a preliminary structural activity relationship (SAR) for the chrologs, we divided the structure of the pyran into four main components: (1)C-2 substituents (carboxylic acid of chrolactomycin); (2) C-6 substituents (chrolactomycin macrolide loop); (3) C-3 substituents (fused γ-lactone of chrolactomycin) and (4) inclusion of the exocyclic methylene group. We carried out systematic modifications of each structural unit and evaluated the effects on telomerase activity as measured by a PCR-based telomerase activity assay (TRAP assay).^16
Telomeric Repeat Amplification Protocol Assay. The telomeric repeat amplification protocol (TRAP) assay was performed using the TRAPeze RT Telomerase Detection Kit (EMD Millipore) and iTaq DNA polymerase (Bio-Rad) according to the manufacturer's protocol.
Cell Lysate TRAP Analysis. MCF-7, HeLa, ACHN, MDA-MB231 and A549 cells were cultured in DMEM media supplemented with 10% Fetal Bovine Serum (FBS), 1% pen/strep and with 5% CO2 and 37° C. Cells were plated in 2×T75 flasks and cultured for 3 days. Flasks were rinsed twice with PBS and treated with 0.05% trypsin-EDTA (Thermo Fisher) to detach cells. […] Cell extracts were transferred to microcentrifuge tubes, 200 μl/tube, and centrifuged at 12,000×g for 20 min at 4° C. to remove cell debris. Stock solutions of compounds were made in DMSO with a concentration of 100 mM and a […] dilution was performed in DMSO in a 96-well plate to produce compound solutions of 100, 10, 1, 0.1, 0.01, and 0.001 mM (1000× of the final concentration). The 1000× stock solutions of the compound samples were transferred to a 96-well plate using the Echo 550 (Labcyte) and then diluted with the cell extracts to yield final compound concentrations of 100, 10, 1, 0.1, 0.01, and 0.001 μM. The plate was covered and shaken at room temperature for 30 min. For TRAPeze reactions, a “master mix” was prepared according to the TRAPeze protocol, containing 5 μl of the TRAPeze reaction mix; 0.4 μl Taq polymerase; 17.6 μl PCR grade, nuclease-free water. The master mix and treated cell extracts were transferred using the Mosquito Crystal Liquid Handling System (TTP Labtech) into separate wells in a white, 384-well RT-PCR plate. Each well contained 1.2 μl of the master mix and 1.2 μl of the treated cell extract to give a final volume of 2.4 μl, with two duplicates for each sample. The RT-PCR plate was then sealed and centrifuged for 5 min. A sample containing only CHAPS Lysis Buffer was included as negative control. The TSR8 standards were included to generate a standard curve. Samples were amplified in a CFW384 RT-PCR (BioRad) detection system with PCR parameters of 30 min at 30° C. for 1 cycle, 2 min at 95° C. for 1 cycle, and then 45 cycles of 15 s at 94° C., 60 s at 59° C., and 10 s at 45° C. Real-time fluorescent data was obtained during the 10 s at 45° C. step. The number of cycles at which the fluorescence level reached a threshold (Ct) was averaged between the duplicates for each sample. Using a calibration curve obtained from the TSR8 standards, a linear equation was obtained to convert the Ct values into arbitrary telomerase activity units, which were plotted as a function of compound concentration to construct dose-response curves and calculate IC50.

T1 sequence (O14746 whole entry): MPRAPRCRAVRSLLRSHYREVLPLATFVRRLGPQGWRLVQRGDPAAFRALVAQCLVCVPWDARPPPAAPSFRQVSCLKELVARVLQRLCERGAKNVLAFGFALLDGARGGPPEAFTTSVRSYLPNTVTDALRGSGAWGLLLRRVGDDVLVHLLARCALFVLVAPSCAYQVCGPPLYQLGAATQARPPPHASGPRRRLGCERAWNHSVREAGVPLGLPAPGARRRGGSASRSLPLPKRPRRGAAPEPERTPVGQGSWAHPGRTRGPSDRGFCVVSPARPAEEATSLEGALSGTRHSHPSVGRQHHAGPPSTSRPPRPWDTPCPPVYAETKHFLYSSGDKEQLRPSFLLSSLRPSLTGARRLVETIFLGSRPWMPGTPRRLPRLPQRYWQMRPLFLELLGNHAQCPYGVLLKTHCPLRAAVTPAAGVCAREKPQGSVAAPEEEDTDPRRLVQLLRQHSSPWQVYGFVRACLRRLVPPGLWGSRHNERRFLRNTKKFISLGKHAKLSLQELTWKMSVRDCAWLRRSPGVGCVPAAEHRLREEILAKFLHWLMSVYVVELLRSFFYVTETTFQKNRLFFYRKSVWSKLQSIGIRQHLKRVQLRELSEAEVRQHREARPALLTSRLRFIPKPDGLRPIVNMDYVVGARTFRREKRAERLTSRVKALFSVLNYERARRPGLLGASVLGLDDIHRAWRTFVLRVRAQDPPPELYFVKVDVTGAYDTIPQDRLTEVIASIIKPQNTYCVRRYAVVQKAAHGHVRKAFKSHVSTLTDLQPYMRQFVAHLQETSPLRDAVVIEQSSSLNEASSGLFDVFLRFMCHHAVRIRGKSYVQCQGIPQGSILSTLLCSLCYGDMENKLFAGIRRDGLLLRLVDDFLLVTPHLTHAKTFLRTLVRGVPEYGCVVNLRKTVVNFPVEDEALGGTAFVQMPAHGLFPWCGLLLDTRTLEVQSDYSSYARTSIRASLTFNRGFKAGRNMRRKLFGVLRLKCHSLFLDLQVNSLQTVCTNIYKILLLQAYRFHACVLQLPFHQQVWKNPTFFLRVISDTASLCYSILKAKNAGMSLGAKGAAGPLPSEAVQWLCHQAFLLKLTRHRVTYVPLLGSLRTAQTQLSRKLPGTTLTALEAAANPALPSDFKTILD
T1 sequence (O60832 whole entry partner): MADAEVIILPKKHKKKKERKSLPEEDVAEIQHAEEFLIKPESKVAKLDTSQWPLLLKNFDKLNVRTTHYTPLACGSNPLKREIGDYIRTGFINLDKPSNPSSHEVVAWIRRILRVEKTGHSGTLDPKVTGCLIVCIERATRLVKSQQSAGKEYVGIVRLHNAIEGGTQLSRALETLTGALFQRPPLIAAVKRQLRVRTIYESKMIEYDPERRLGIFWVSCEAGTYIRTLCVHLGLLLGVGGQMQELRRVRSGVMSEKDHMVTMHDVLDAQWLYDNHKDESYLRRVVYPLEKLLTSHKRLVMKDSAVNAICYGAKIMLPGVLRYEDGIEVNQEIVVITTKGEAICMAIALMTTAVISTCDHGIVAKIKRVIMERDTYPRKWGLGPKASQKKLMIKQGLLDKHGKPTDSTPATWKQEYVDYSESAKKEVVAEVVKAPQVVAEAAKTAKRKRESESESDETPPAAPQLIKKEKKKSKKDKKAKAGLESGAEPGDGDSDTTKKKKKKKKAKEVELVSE
T1 sequence (Q9NPE3 whole entry partner): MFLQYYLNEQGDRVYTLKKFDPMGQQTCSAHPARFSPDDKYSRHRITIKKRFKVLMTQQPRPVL
T1 sequence (Q9NX24 whole entry partner): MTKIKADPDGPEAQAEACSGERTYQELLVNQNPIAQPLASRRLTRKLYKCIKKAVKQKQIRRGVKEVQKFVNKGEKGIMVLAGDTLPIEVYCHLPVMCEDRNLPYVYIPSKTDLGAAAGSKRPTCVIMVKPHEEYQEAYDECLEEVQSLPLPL
T1 sequence (Q9NY12 whole entry partner): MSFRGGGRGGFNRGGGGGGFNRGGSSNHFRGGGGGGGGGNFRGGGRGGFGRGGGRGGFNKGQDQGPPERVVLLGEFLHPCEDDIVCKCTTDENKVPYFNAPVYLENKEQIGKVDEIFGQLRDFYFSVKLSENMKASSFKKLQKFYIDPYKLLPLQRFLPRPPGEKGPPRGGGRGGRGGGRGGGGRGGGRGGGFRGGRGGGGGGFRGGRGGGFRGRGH
T1 sequence (Q9BUR4 whole entry partner): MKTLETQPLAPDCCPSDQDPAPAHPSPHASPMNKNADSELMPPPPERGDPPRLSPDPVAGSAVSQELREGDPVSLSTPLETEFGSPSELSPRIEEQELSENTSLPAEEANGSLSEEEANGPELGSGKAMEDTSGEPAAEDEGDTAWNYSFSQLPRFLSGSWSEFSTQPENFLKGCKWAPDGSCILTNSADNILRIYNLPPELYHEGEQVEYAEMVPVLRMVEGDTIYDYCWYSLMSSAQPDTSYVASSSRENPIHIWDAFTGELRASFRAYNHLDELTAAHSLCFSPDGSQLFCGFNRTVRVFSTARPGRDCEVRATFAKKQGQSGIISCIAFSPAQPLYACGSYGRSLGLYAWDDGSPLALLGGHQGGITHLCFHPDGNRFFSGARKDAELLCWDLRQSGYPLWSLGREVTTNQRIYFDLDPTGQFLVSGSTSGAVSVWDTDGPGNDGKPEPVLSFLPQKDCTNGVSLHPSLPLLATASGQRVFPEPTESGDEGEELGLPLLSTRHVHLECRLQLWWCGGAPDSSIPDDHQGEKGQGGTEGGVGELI

Row | Structure (SMILES) | IC50 (MCF-7 cell lysates) [µM] | IC50 (Table 1, C-2 and C-6 groups) [µM] | IC50 (Table 2, C-3 group) [µM]
1 | C=C1C(=O)[C@](C)(C(=O)OC)[C@H](CCc2ccc(NC(C)=O)cc2)O[C@@H]1C (racemic) [Compound 4a, (±) methyl (2S,3R,6R)-2-(4-acetamidophenethyl)-3,6-dimethyl-5-methylene-4-oxotetrahydro2H-pyran-3-carboxylate] | 1.5 | 1.5 | 1.5
2 | C=C1C(=O)[C@](C)(C(=O)OC)[C@H](CCc2ccccc2)O[C@@H]1C (racemic) [Compound 4b, (±) methyl (2S,3R,6R)-3,6-dimethyl-5-methylene-4-oxo-2-phenethyltetrahydro-2H-pyran-3 carboxylate] | – | > 100 | –
3 | C=C1C(=O)[C@](C)(C(=O)OC)[C@H](CC(C)C)O[C@@H]1C (racemic) [Compound 4c, (±) methyl (2S,3R,6R)-2-isobutyl-3,6-dimethyl-5-methylene-4-oxotetrahydro-2H-pyran-3 carboxylate] | – | > 100 | –
4 | C=C1C(=O)[C@](C)(C(=O)OC)[C@H](CCc2ccc(F)cc2)O[C@@H]1C (racemic) [Compound 4d, (±) methyl (2S,3R,6R)-2-(4-fluorophenethyl)-3,6-dimethyl-5-methylene-4-oxotetrahydro-2H pyran-3-carboxylate] | – | 42 | –
5 | C=C1C(=O)[C@@](C)(C(=O)OC)[C@@H](CCc2ccc(C(F)(F)F)cc2)O[C@H]1C (racemic) [Compound 4e, (±) methyl (2S,3R,6R)-3,6-dimethyl-5-methylene-4-oxo-2-(4(trifluoromethyl)phenethyl)tetrahydro-2H-pyran-3-carboxylate] | – | 55 | –
6 | C=C1C(=O)[C@](C)(C(=O)OC)C(CCc2ccc(OC)cc2)O[C@@H]1C (mixture of isomers) [Compound 4f, (±) methyl (2S,3R,6R)-2-(4-methoxyphenethyl)-3,6-dimethyl-5-methylene-4-oxotetrahydro2H-pyran-3-carboxylate] | – | 62 | –
7 | C=C1C(=O)[C@@](C)(C(=O)OC)[C@@H](CCc2cccc(NC(C)=O)c2)O[C@H]1C (racemic) [Compound 4g, (±) methyl (2S,3R,6R)-2-(3-acetamidophenethyl)-3,6-dimethyl-5-methylene-4-oxotetrahydro2H-pyran-3-carboxylate] | – | 11 | –
8 | C=C1C(=O)[C@@](C)(C(=O)OC)[C@@H](CCc2cccc(F)c2)O[C@H]1C (racemic) [Compound 4h, (±) methyl (2S,3R,6R)-2-(3-fluorophenethyl)-3,6-dimethyl-5-methylene-4-oxotetrahydro-2H pyran-3-carboxylate] | – | > 100 | –
9 | C=C1C(=O)[C@@](C)(C(=O)OC)[C@@H](CCc2ccc(NC(C)=O)cc2)O[C@H]1CC(C)C (racemic) [Compound 4i, (±) methyl (2S,3R,6R)-2-(4-acetamidophenethyl)-6-isobutyl-3-methyl-5-methylene-4oxotetrahydro-2H-pyran-3-carboxylate] | – | 45 | –
10 | C=C1C(=O)[C@@](C)(C(=O)OC)[C@@H](CCc2ccc(NC(C)=O)cc2)O[C@H]1CCc1ccccc1 (racemic) [Compound 4j, (±) methyl (2S,3R,6R)-2-(4-acetamidophenethyl)-3-methyl-5-methylene-4-oxo-6phenethyltetrahydro-2H-pyran-3-carboxylate] | – | > 100 | –
11 | C=C1C(=O)[C@@](C)(C(=O)OC(C)C)[C@@H](CCc2ccc(NC(C)=O)cc2)O[C@H]1C (racemic) [Compound 4k, (±) isopropyl (2S,3R,6R)-2-(4-acetamidophenethyl)-3,6-dimethyl-5-methylene-4oxotetrahydro-2H-pyran-3-carboxylate] | – | – | 45
12 | C=C1C(=O)[C@@](C)(C(=O)OCC2CC2)[C@@H](CCc2ccc(NC(C)=O)cc2)O[C@H]1C (racemic) [Compound 4l, (±) cyclopropylmethyl (2S,3R,6R)-2-(4-acetamidophenethyl)-3,6-dimethyl-5-methylene-4oxotetrahydro-2H-pyran-3-carboxylate] | – | – | 75
